What was measured:
Format in all cases: functional
OCI-Ly10 [1] = assay: Growth inhibition of human OCILY10 cells at 3.3 uM incubated for 3 days in presence of 0.017 uM acalabrutinib relative to control; details: OCI-Ly10, 72 h, time 3 day, read-out: GI
OCI-Ly10 [2] = assay: Growth inhibition of human OCILY10 cells at 3.3 uM incubated for 3 days in presence of 0.33 uM acalabrutinib relative to control; details: OCI-Ly10, 72 h, time 3 day, read-out: GI
OCI-Ly10 [3] = assay: Growth inhibition of human OCILY10 cells at 0.33 uM incubated for 3 days in presence of 0.33 uM acalabrutinib relative to control; details: OCI-Ly10, 72 h, time 3 day, read-out: GI
OCI-Ly10 [4] = assay: Growth inhibition of human OCILY10 cells at 3.3 uM incubated for 3 days in presence of 0.003 uM acalabrutinib relative to control; details: OCI-Ly10, 72 h, time 3 day, read-out: GI
SUD4 [5] = assay: Growth inhibition of human SU-DHL-4 cells at 10 uM incubated for 3 days in presence of 0.003 uM acalabrutinib relative to control; details: SU-DHL-4, 72 h, time 3 day, read-out: GI
OCI-Ly10 [6] = assay: Growth inhibition of human OCILY10 cells at 10 uM incubated for 3 days in presence of 0.33 uM acalabrutinib relative to control; details: OCI-Ly10, 72 h, time 3 day, read-out: GI
SUD4 [7] = assay: Growth inhibition of human SU-DHL-4 cells at 10 uM incubated for 3 days in presence of 0.33 uM acalabrutinib relative to control; details: SU-DHL-4, 72 h, time 3 day, read-out: GI
OCI-Ly10 [8] = assay: Growth inhibition of human OCILY10 cells at 10 uM incubated for 3 days in presence of 0.003 uM acalabrutinib relative to control; details: OCI-Ly10, 72 h, time 3 day, read-out: GI
OCI-Ly10 [9] = assay: Growth inhibition of human OCILY10 cells at 10 uM incubated for 3 days in presence of 0.17 uM acalabrutinib relative to control; details: OCI-Ly10, 72 h, time 3 day, read-out: GI
OCI-Ly10 [10] = assay: Growth inhibition of human OCILY10 cells at 0.33 uM incubated for 3 days in presence of 0.17 uM acalabrutinib relative to control; details: OCI-Ly10, 72 h, time 3 day, read-out: GI
OCI-Ly10 [11] = assay: Growth inhibition of human OCILY10 cells at 0.33 uM incubated for 3 days in presence of 0.003 uM acalabrutinib relative to control; details: OCI-Ly10, 72 h, time 3 day, read-out: GI
SUD4 [12] = assay: Growth inhibition of human SU-DHL-4 cells at 1.7 uM incubated for 3 days in presence of 0.017 uM acalabrutinib relative to control; details: SU-DHL-4, 72 h, time 3 day, read-out: GI
SUD4 [13] = assay: Growth inhibition of human SU-DHL-4 cells at 3.3 uM incubated for 3 days in presence of 0.033 uM acalabrutinib relative to control; details: SU-DHL-4, 72 h, time 3 day, read-out: GI
SUD4 [14] = assay: Growth inhibition of human SU-DHL-4 cells at 0.17 uM incubated for 3 days in presence of 0.033 uM acalabrutinib relative to control; details: SU-DHL-4, 72 h, time 3 day, read-out: GI
OCI-Ly10 [15] = assay: Growth inhibition of human OCILY10 cells at 0.17 uM incubated for 3 days in presence of 0.003 uM acalabrutinib relative to control; details: OCI-Ly10, 72 h, time 3 day, read-out: GI
SUD4 [16] = assay: Growth inhibition of human SU-DHL-4 cells at 3.3 uM incubated for 3 days in presence of 0.33 uM acalabrutinib relative to control; details: SU-DHL-4, 72 h, time 3 day, read-out: GI
OCI-Ly10 [17] = assay: Growth inhibition of human OCILY10 cells at 1.7 uM incubated for 3 days in presence of 0.33 uM acalabrutinib relative to control; details: OCI-Ly10, 72 h, time 3 day, read-out: GI
SUD4 [18] = assay: Growth inhibition of human SU-DHL-4 cells at 1.7 uM incubated for 3 days in presence of 0.033 uM acalabrutinib relative to control; details: SU-DHL-4, 72 h, time 3 day, read-out: GI
OCI-Ly10 [19] = assay: Growth inhibition of human OCILY10 cells at 3.3 uM incubated for 3 days in presence of 0.033 uM acalabrutinib relative to control; details: OCI-Ly10, 72 h, time 3 day, read-out: GI
OCI-Ly10 [20] = assay: Growth inhibition of human OCILY10 cells at 0.33 uM incubated for 3 days in presence of 0.017 uM acalabrutinib relative to control; details: OCI-Ly10, 72 h, time 3 day, read-out: GI
OCI-Ly10 [21] = assay: Growth inhibition of human OCILY10 cells at 10 uM incubated for 3 days in presence of 0.017 uM acalabrutinib relative to control; details: OCI-Ly10, 72 h, time 3 day, read-out: GI
SUD4 [22] = assay: Growth inhibition of human SU-DHL-4 cells at 3.3 uM incubated for 3 days in presence of 0.017 uM acalabrutinib relative to control; details: SU-DHL-4, 72 h, time 3 day, read-out: GI
OCI-Ly10 [23] = assay: Growth inhibition of human OCILY10 cells at 0.17 uM incubated for 3 days in presence of 0.017 uM acalabrutinib relative to control; details: OCI-Ly10, 72 h, time 3 day, read-out: GI
SUD4 [24] = assay: Growth inhibition of human SU-DHL-4 cells at 3.3 uM incubated for 3 days in presence of 0.17 uM acalabrutinib relative to control; details: SU-DHL-4, 72 h, time 3 day, read-out: GI
OCI-Ly10 [25] = assay: Growth inhibition of human OCILY10 cells at 0.17 uM incubated for 3 days in presence of 0.33 uM acalabrutinib relative to control; details: OCI-Ly10, 72 h, time 3 day, read-out: GI
SUD4 [26] = assay: Growth inhibition of human SU-DHL-4 cells at 1.7 uM incubated for 3 days in presence of 0.17 uM acalabrutinib relative to control; details: SU-DHL-4, 72 h, time 3 day, read-out: GI
OCI-Ly10 [27] = assay: Growth inhibition of human OCILY10 cells at 1.7 uM incubated for 3 days in presence of 0.17 uM acalabrutinib relative to control; details: OCI-Ly10, 72 h, time 3 day, read-out: GI
SUD4 [28] = assay: Growth inhibition of human SU-DHL-4 cells at 3.3 uM incubated for 3 days in presence of 0.003 uM acalabrutinib relative to control; details: SU-DHL-4, 72 h, time 3 day, read-out: GI
SUD4 [29] = assay: Growth inhibition of human SU-DHL-4 cells at 10 uM incubated for 3 days in presence of 0.033 uM acalabrutinib relative to control; details: SU-DHL-4, 72 h, time 3 day, read-out: GI
SUD4 [30] = assay: Growth inhibition of human SU-DHL-4 cells at 10 uM incubated for 3 days in presence of 0.17 uM acalabrutinib relative to control; details: SU-DHL-4, 72 h, time 3 day, read-out: GI
SUD4 [31] = assay: Growth inhibition of human SU-DHL-4 cells at 0.17 uM incubated for 3 days in presence of 0.003 uM acalabrutinib relative to control; details: SU-DHL-4, 72 h, time 3 day, read-out: GI
OCI-Ly10 [32] = assay: Growth inhibition of human OCILY10 cells at 10 uM incubated for 3 days in presence of 0.033 uM acalabrutinib relative to control; details: OCI-Ly10, 72 h, time 3 day, read-out: GI
SUD4 [33] = assay: Growth inhibition of human SU-DHL-4 cells at 0.33 uM incubated for 3 days in presence of 0.033 uM acalabrutinib relative to control; details: SU-DHL-4, 72 h, time 3 day, read-out: GI
SUD4 [34] = assay: Growth inhibition of human SU-DHL-4 cells at 1.7 uM incubated for 3 days in presence of 0.003 uM acalabrutinib relative to control; details: SU-DHL-4, 72 h, time 3 day, read-out: GI
OCI-Ly10 [35] = assay: Growth inhibition of human OCILY10 cells at 0.17 uM incubated for 3 days in presence of 0.033 uM acalabrutinib relative to control; details: OCI-Ly10, 72 h, time 3 day, read-out: GI
OCI-Ly10 [36] = assay: Growth inhibition of human OCILY10 cells at 3.3 uM incubated for 3 days in presence of 0.17 uM acalabrutinib relative to control; details: OCI-Ly10, 72 h, time 3 day, read-out: GI
OCI-Ly10 [37] = assay: Growth inhibition of human OCILY10 cells at 0.17 uM incubated for 3 days in presence of 0.17 uM acalabrutinib relative to control; details: OCI-Ly10, 72 h, time 3 day, read-out: GI
SUD4 [38] = assay: Growth inhibition of human SU-DHL-4 cells at 0.17 uM incubated for 3 days in presence of 0.33 uM acalabrutinib relative to control; details: SU-DHL-4, 72 h, time 3 day, read-out: GI
SUD4 [39] = assay: Growth inhibition of human SU-DHL-4 cells at 0.17 uM incubated for 3 days in presence of 0.17 uM acalabrutinib relative to control; details: SU-DHL-4, 72 h, time 3 day, read-out: GI
SUD4 [40] = assay: Growth inhibition of human SU-DHL-4 cells at 1.7 uM incubated for 3 days in presence of 0.33 uM acalabrutinib relative to control; details: SU-DHL-4, 72 h, time 3 day, read-out: GI
SUD4 [41] = assay: Growth inhibition of human SU-DHL-4 cells at 10 uM incubated for 3 days in presence of 0.017 uM acalabrutinib relative to control; details: SU-DHL-4, 72 h, time 3 day, read-out: GI

For Cc1ncc(-c2nc3c(NC(C)C)nc(Nc4cnn(C5CC6(C5)CN(C)C6)c4)nc3cc2F)cn1, the inhibition of growth at 3.3 µM (OCI-Ly10 [1]) was 196%, the inhibition of growth at 3.3 µM (OCI-Ly10 [2]) was 195% and the inhibition of growth at 0.33 µM (OCI-Ly10 [3]) was 183%. It also gave an inhibition of growth at 3.3 µM (OCI-Ly10 [4]) of 189%, an inhibition of growth at 10 µM (SUD4 [5]) of 7% and an inhibition of growth at 10 µM (OCI-Ly10 [6]) of 198%. The inhibition of growth at 10 µM (SUD4 [7]) was 10%, the inhibition of growth at 10 µM (OCI-Ly10 [8]) was 196% and the inhibition of growth at 10 µM (OCI-Ly10 [9]) was 199%. The inhibition of growth at 0.33 µM (OCI-Ly10 [10]) was 185%, the inhibition of growth at 0.33 µM (OCI-Ly10 [11]) was 51% and the inhibition of growth at 1.7 µM (SUD4 [12]) was 3%. It also gave an inhibition of growth at 3.3 µM (SUD4 [13]) of 4%, an inhibition of growth at 0.17 µM (SUD4 [14]) of 2% and an inhibition of growth at 0.17 µM (OCI-Ly10 [15]) of 29%. It also gave an inhibition of growth at 3.3 µM (SUD4 [16]) of 7%, an inhibition of growth at 1.7 µM (OCI-Ly10 [17]) of 195% and an inhibition of growth at 1.7 µM (SUD4 [18]) of 3%. For the same compound, the inhibition of growth at 3.3 µM (OCI-Ly10 [19]) was 196%, the inhibition of growth at 0.33 µM (OCI-Ly10 [20]) was 158% and the inhibition of growth at 10 µM (OCI-Ly10 [21]) was 197%. It also gave an inhibition of growth at 3.3 µM (SUD4 [22]) of 4%, an inhibition of growth at 0.17 µM (OCI-Ly10 [23]) of 97% and an inhibition of growth at 3.3 µM (SUD4 [24]) of 4%. For the same compound, the inhibition of growth at 0.17 µM (OCI-Ly10 [25]) was 173%, the inhibition of growth at 1.7 µM (SUD4 [26]) was 3% and the inhibition of growth at 1.7 µM (OCI-Ly10 [27]) was 197%. For the same compound, the inhibition of growth at 3.3 µM (SUD4 [28]) was 4%, the inhibition of growth at 10 µM (SUD4 [29]) was 6% and the inhibition of growth at 10 µM (SUD4 [30]) was 7%. It also gave an inhibition of growth at 0.17 µM (SUD4 [31]) of 3%, an inhibition of growth at 10 µM (OCI-Ly10 [32]) of 198% and an inhibition of growth at 0.33 µM (SUD4 [33]) of 3%. It also gave an inhibition of growth at 1.7 µM (SUD4 [34]) of 3%, an inhibition of growth at 0.17 µM (OCI-Ly10 [35]) of 137% and an inhibition of growth at 3.3 µM (OCI-Ly10 [36]) of 196%. The inhibition of growth at 0.17 µM (OCI-Ly10 [37]) was 172%, the inhibition of growth at 0.17 µM (SUD4 [38]) was 6% and the inhibition of growth at 0.17 µM (SUD4 [39]) was 3%. For the same compound, the inhibition of growth at 1.7 µM (SUD4 [40]) was 6% and the inhibition of growth at 10 µM (SUD4 [41]) was 7%.
